From patent publication US5932568A, “6-methoxy-1H-benzotriazole-5-carboxamide derivatives and pharmaceutical compositions containing them” (priority 1994, dated 1999)
Structures can show the parent of a compound that is named as a salt.

Experiments:
[1] = test system: gastric emptying delayed by morphine; experiment: Effect on gastric emptying delayed by morphine; assay type: in vivo, Male Wistar rats; set-up: key to Effect on gastric emptying delayed by morphine: +: slightly to moderately improved; ++: markedly improved; ±: no improvement; settings: for Effect on gastric emptying delayed by morphine: morphine 3 mg/kg s.c.
Method: (§1) The test was carried out according to the method of Scarpignato et al. [c f. Arch. int. Pharmacodyn., 246, 286-294 (1980)]. Male Wistar rats, weighing 130-150 g, were fasted for 18 hours before experimentation, and 1.5 ml of a test meal (phenol red 0.05% in a 1.5% aqueous methylcellulose solution) was orally given. Fifteen minutes after administration of the meal the stomach was removed and the amount of phenol red remaining in the stomach was measured. The test compounds, 10, 30 or 100 mg/kg, each dissolved or suspended in a 0.5% tragacanth solution, were orally administrated 60 minutes before administration of the test meal. Gastric emptying was delayed by subcutaneous administration of cholesystokinin 3 μg/kg or morphine 3 mg/kg 5 minutes before the administration of phenol red. The number of animals used was 5 to 10.

in vivo = settings: mouse, oral, mice, 7 days observation
[2] = test system: gastrointestinal motility; experiment: Gastrointestinal motility improving activity (overall statement); settings: in vivo
exploratory activity = experiment: Inhibitory effect on exploratory activity; assay type: in vivo, male mice (Std-ddy strain); settings: oral, 2 h before test; 3 min counting; Probit
Description: A group of 5 male mice (Std-ddy strain, 20-25 g) was used. Two hours after oral administration of the test compounds in the form of 0.5% tragacanth solution or suspension, mice were placed individually in a test box (23×35×30 cm) on Animex activity meter (Farad Co.). Immediately thereafter, activity counting was started and lasted for three minutes. The mean counts of the compound-treated group were compared with those of the corresponding control (non-dosed) group, and the percent inhibition was calculated and the 50% inhibitory dose (ID50) was obtained according to the method of Probit.

[3] = test system: gastrointestinal motility; experiment: Effect on gastrointestinal motility in conscious dog; assay type: in vivo, beagle dogs; settings: 3 and 10 mg/kg intragastric; fed state, conscious dogs
Method: Four healthy beagle dogs per group of both sexes weighing 10 to 12 kg were anesthetized with an i.v. injection of pentobarbital sodium (Nembutal, 30 mg/kg b. wt.), and the abdominal cavity was opened under aseptic conditions. Extraluminal force transducers were sutured onto the seromuscular layer of the gastric antrum, 3 cm proximal to the pyloric ring, the duodenum, the jejunum, the […] terminal ileum in a manner to measure circular muscle contraction, following the method of Ito et al., [cf. Gastrointerol. Japan. 12, 275-283 (1977).] For intragastric (i.g.) administration of drugs, a Silastic tube (Fr. size 6.5) was inserted into the lumen of the gastric body, and the tube was fixed onto the adjacent serosa. The lead wires of these transducers and gastric tube were taken out of abdominal cavity and then brought out through a skin incision made between the scapulae. The outer ends of the lead wires were sutured onto the skin adjacent to the skin incision. After the operation, jacket protector was placed on the dog to protect the lead wires and the Silastic tube. The dogs were housed in individual experimental cages and given dog food at 10 a.m., and water was given freely. Test compounds at 3 and 10 mg/kg were suspended in 0.5% tragacanth solution and given i.g. through the indwelling Silastic tube.

[4] = test system: apomorphine-induced vomiting; experiment: Inhibitory effect on apomorphine-induced vomiting; assay type: in vivo, dogs (Beagle); settings: 2 h before s.c. apomorphine hydrochloride 0.3 mg/kg, emetic episodes 1 h
Method: A group of 3-4 dogs (Beagle, 8-15 kg) was used for examining inhibitory effects of the test compounds on apomorphine-induced vomiting according to the method of Chen and Ensor [cf. J. Pharmacol. Exp. Ther., 98, 245-250 (1950)]. Test compounds, dissolved or suspended in a 0.5% tragacanth solution were orally administered two hours before the subcutaneous administration of apomorphine hydrochloride (0.3 mg/kg). Then, the emetic episodes were counted for one hour. The emetic episodes of the compound-treated group were compared with those of the corresponding control (non-dosed) group, and the percent inhibition was calculated.

gastric emptying = experiment: Gastric emptying enhancing activity; assay type: in vivo, Male Wistar rats; settings: 3 mg/kg oral, 60 min before test meal; increase from control
Method: The test was carried out according to the method of Scarpignato et al. [cf. Arch. Int. Pharmacodyn., 246, 286-294 (1980)]. Male Wistar rats, weighing 130-150 g, were fasted for 18 hours before experimentation, and 1.5 ml of a test meal (phenol red 0.05% in a 1.5% aqueous methylcellulose solution) was orally given. Fifteen minutes after administration of the meal the stomach was removed and the amount of phenol red remaining in the stomach was measured. The test compounds, dissolved or suspended in a 0.5% tragacanth solution, were orally administered 60 minutes before administration of the test meal. The rate of gastric emptying was calculated according to the amount of phenol red remaining in the stomach, and the activity of the test compounds was expressed in terms of increase in the emptying rate from the control.

[5] = test system: gastric emptying delayed by cholecystokinin; experiment: Effect on gastric emptying delayed by cholecystokinin; assay type: in vivo, Male Wistar rats; set-up: key to Effect on gastric emptying delayed by cholecystokinin: +: slightly to moderately improved; ++: markedly improved; ±: no improvement; settings: for Effect on gastric emptying delayed by cholecystokinin: cholecystokinin 3 μg/kg s.c.
Method: as §1

dopamine D2 receptor = settings: cited from earlier work

Row | Structure (SMILES) | Effect on gastric emptying delayed by morphine ([1]; 10 mg/kg oral) | Effect on gastric emptying delayed by morphine ([1]; 30 mg/kg oral) | Effect on gastric emptying delayed by morphine ([1]; 100 mg/kg oral) | Gastric emptying delayed by morphine (in words) ([1]; 10, 30 or 100 mg/kg) | LD50 at 168 h (in vivo) | Gastrointestinal motility improving activity (in words) [2] | ID50 (inhibition of exploratory activity) (exploratory activity) | Interdigestive migrating like-contractions [3] | Inhibition of apomorphine-induced vomiting ([4]; 0.1 mg/kg oral) | Inhibition of apomorphine-induced vomiting ([4]; 1.0 mg/kg oral) | Increase in gastric emptying rate (gastric emptying) | Effect on gastric emptying delayed by cholecystokinin ([5]; 10 mg/kg oral) | Effect on gastric emptying delayed by cholecystokinin ([5]; 30 mg/kg oral) | Effect on gastric emptying delayed by cholecystokinin ([5]; 100 mg/kg oral) | Gastric emptying delayed by cholecystokinin (in words) ([5]; compound 2: 30 or 100 mg/kg, 7b and Compound A: 10, 30 or 100 mg/kg) | Dopamine D2 receptor antagonistic activity (dopamine D2 receptor) | CNS depressant activity (dopamine D2 receptor; derived from dopamine D2 receptor antagonistic activity)
1 | CCN1CCCC[C@@H](NC(=O)c2cc3nn[nH]c3cc2OC)C1 [Compound 7b, (R)-N-(1-ethyl-1H-hexahydroazepin-3-yl)-6-methoxy-1H-benzotriazole-5-carboxamide.3/2 fumarate] | + | ++ | ++ | significantly improved gastric emptying delayed by cholecystokinin or morphine | 945 mg/kg | especially excellent gastrointestinal motility improving activity | > 100 mg/kg | caused interdigestive migrating like-contractions in fed state in conscious dogs | 69% | 100% | 34% | + | ++ | ++ | significantly improved gastric emptying delayed by cholecystokinin or morphine | – | –
2 | CCN(CC)CCNC(=O)c1cc(Cl)c(N)cc1OC [metoclopramide, 4-amino-5-chloro-N-[2-(diethylamino)ethyl]-2-methoxybenzamide] | – | – | – | – | – | – | – | – | – | – | – | – | – | – | – | dopamine D2 receptor antagonistic activity | possesses CNS depressant activity
